Experimental data reported in PubChem BioAssay AID2060484 (Molecular Pharmacology Branch, DTP, NCI, 2025).
pIC50: −log10 of the molar value. Values joined by “and” are separate entries in the source; they are usually repeats but may differ in a detail not shown here. Equal entries are not always repeated.

System: SUM149PT spheroids with HUVEC/MSC, viability
Assay: Anticancer human tumor SUM149PT cell line growth inhibition [GQUAD];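 also: spheroids exposed to drugs for seven days before readout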;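 as to viability, T/C: percent viability relative to DMSO vehicle control taken as 100%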
Details: for viability, T/C: stronger effect = lower value
Excerpt: DNA G-quadruplex Stabilizer Agents in Combinations in Complex Spheroids
A high-throughput screen of multi-cell type tumor spheroids was designed to identify active combinations of DNA G-quadruplex stabilizer agents and targeted small molecules. Complex spheroids include a stromal component modeled by human endothelial cells (HUVEC) and fibroblasts modeled by human mesenchymal stem cells (MSCs). The concentration ranges selected for each drug and investigational agent were based upon clinically achievable concentrations if the clinical Cmax of the agent was known.
Compounds. The drugs and investigational agents: pidnarulex (CX-5461; NSC782164), APTO-253 (NSC789042), BRACO-19 (NSC847499), peposertib (NSC802822), ceralasertib (NSC780249), elimusertib (NSC800525), camonsertib (NSC841442), AZD-1390 (NSC803789), olaparib (NSC753686), talazoparib (NSC767125), ART-558 (NSC835418), sotorasib (NSC818433), MRTX-1133 (NSC836407), SN-38 (NSC673596), topotecan (NSC609699), etoposide (NSC141540), doxorubicin (NSC123127), gemcitabine (NSC613327), 5-fluorouracil (NSC19893), paclitaxel (NSC125973), vemurafenib (NSC761431), panobinostat (NSC761190), R-306465 (JNJ-16241199; NSC773264), adavosertib (NSC754352), TP-3654 (NSC805149), carboplatin (NSC241240), KSQ-4279 (NSC840948), and staurosporine (NSC755774) were obtained from the National Cancer Institute (NCI) Developmental Therapeutics Program Chemical Repository (34). The FDA-approved anticancer drug set is available from the NCI Developmental Therapeutics Program. […] The stock solutions were prepared in dimethyl sulfoxide (DMSO, Sigma-Aldrich, St. Louis, MO, cat. D2650) at 800-fold the tested concentration and stored at -70 degrees C prior to their use. All drugs and investigational agents were tested over a range starting from a high concentration at or near the clinical Cmax and decreasing in half-log increments. If the clinical Cmax for an agent had not been determined, the highest concentration tested was 10 microM.
2.3 Cell Culture. All cells were maintained in an incubator at 37 degrees C and 5% CO2 with 95% humidity. The PDC lines were cultured according to standard operating procedures established by the NCI PDMR. All PDCs were thawed and cultured in Matrigel-coated flasks prepared with a working solution of 1X Ham's F-12 nutrient mix, without supplementation (Invitrogen, cat. 11765054), 100 U/mL penicillin-streptomycin (Invitrogen, cat. 15140122), and 2.5% Matrigel (Corning Inc., cat. 354248) for the first three passages. The 857933-349-R-J2-PDC line was cultured in 6C/Colon 1B media, which includes advanced DMEM/F-12 (Thermo Fisher Scientific, cat. 12634028), 10 mM HEPES (Thermo Fisher Scientific, cat. 15630080), 1X GlutaMAX supplement (Thermo Fisher Scientific, cat. 35050061), 0.1 mg/mL primocin (InvivoGen, cat. ant-pm-2), 10% defined fetal bovine serum, heat inactivated (HyClone Laboratories Inc., cat. SH30070.03HI), 50% L-WRN conditioned media (ATCC, cat. CRL-3276), 1.25 mM N-Acetyl-L-cysteine (Sigma-Aldrich, cat. A9165), 10 mM nicotinamide (Sigma-Aldrich, cat. N0636), 1X B-27 supplement (Thermo Fisher Scientific, cat. 17504044), 1X N-2 supplement (Thermo Fisher Scientific, cat. 17502048), 10 microM Y-27632 dihydrochloride (Tocris Bioscience, cat. 1254), and 50 ng/mL human EGF recombinant protein (Thermo Fisher Scientific, cat. PHG0311). The 485176-168-R4-J1-PDC line was cultured in Panc media, which includes all 6C/Colon 1B media components plus 100 ng/mL human FGF-10 (Thermo Fisher Scientific, cat. 100-26), 500 nM SB-431542 (Selleckchem, cat. S1067), and gastrin (Tocris, cat. 3006).
[…]

`CCCS(=O)(=O)Nc1ccc(F)c(C(=O)c2c[nH]c3ncc(-c4ccc(Cl)cc4)cc23)c1F` + CN(C)c1ccc(Nc2c3ccc(NC(=O)CCN4CCCC4)cc3nc3cc(NC(=O)CCN4CCCC4)ccc23)cc1 showed a pIC50 (curve of first compound, second compound 0.0316 µM) of 5.12, a pIC50 (curve of first compound, second compound 0.1 µM) of 5.14 and a pIC50 (curve of first compound, second compound 0.316 µM) of 5.11. The pIC50 (curve of first compound, second compound 1 µM) was 5.38, the pIC50 (curve of first compound, second compound 3.16 µM) was 5.51 and the pIC50 (curve of first compound, second compound 10 µM) was 5.62. For the same compound, the viability, T/C (second compound 0.0316 µM, first compound 0.0316 µM) was 108%, the viability, T/C (second compound 0.0316 µM, first compound 0.1 µM) was 91.9% and the viability, T/C (second compound 0.0316 µM, first compound 0.316 µM) was 103%. It also gave a viability, T/C (second compound 0.0316 µM, first compound 1 µM) of 98.1%, a viability, T/C (second compound 0.0316 µM, first compound 3.16 µM) of 74.5% and a viability, T/C (second compound 0.0316 µM, first compound 10 µM) of 42.4%. It also gave a viability, T/C (second compound 0.1 µM, first compound 0.0316 µM) of 95.7%, a viability, T/C (second compound 0.1 µM, first compound 0.1 µM) of 103% and a viability, T/C (second compound 0.1 µM, first compound 0.316 µM) of 102%. The viability, T/C (second compound 0.1 µM, first compound 1 µM) was 100%, the viability, T/C (second compound 0.1 µM, first compound 3.16 µM) was 76.3% and the viability, T/C (second compound 0.1 µM, first compound 10 µM) was 40%. It also gave a viability, T/C (second compound 0.316 µM, first compound 0.0316 µM) of 96.4%, a viability, T/C (second compound 0.316 µM, first compound 0.1 µM) of 96.2% and a viability, T/C (second compound 0.316 µM, first compound 0.316 µM) of 96.4%. For the same compound, the viability, T/C (second compound 0.316 µM, first compound 1 µM) was 90%, the viability, T/C (second compound 0.316 µM, first compound 3.16 µM) was 67% and the viability, T/C (second compound 0.316 µM, first compound 10 µM) was 45.3%. It also gave a viability, T/C (second compound 1 µM, first compound 0.0316 µM) of 92.2%, a viability, T/C (second compound 1 µM, first compound 0.1 µM) of 84.3% and a viability, T/C (second compound 1 µM, first compound 0.316 µM) of 91%. The viability, T/C (second compound 1 µM, first compound 1 µM) was 89.7%, the viability, T/C (second compound 1 µM, first compound 3.16 µM) was 54.6% and the viability, T/C (second compound 1 µM, first compound 10 µM) was 35.4%. It also gave a viability, T/C (second compound 3.16 µM, first compound 0.0316 µM) of 83.2%, a viability, T/C (second compound 3.16 µM, first compound 0.1 µM) of 89.6% and a viability, T/C (second compound 3.16 µM, first compound 0.316 µM) of 86.4%. It also gave a viability, T/C (second compound 3.16 µM, first compound 1 µM) of 81.7%, a viability, T/C (second compound 3.16 µM, first compound 3.16 µM) of 49.3% and a viability, T/C (second compound 3.16 µM, first compound 10 µM) of 24%. For the same compound, the viability, T/C (second compound 10 µM, first compound 0.0316 µM) was 84.8%, the viability, T/C (second compound 10 µM, first compound 0.1 µM) was 80.4% and the viability, T/C (second compound 10 µM, first compound 0.316 µM) was 89.6%. It also gave a viability, T/C (second compound 10 µM, first compound 1 µM) of 71.1%, a viability, T/C (second compound 10 µM, first compound 3.16 µM) of 43.2% and a viability, T/C (second compound 10 µM, first compound 10 µM) of 11.9%.
With `CC(=O)O[C@H]1C(=O)[C@@]2(C)[C@H]([C@H](OC(=O)c3ccccc3)[C@]3(O)C[C@H](OC(=O)[C@H](O)[C@@H](NC(=O)c4ccccc4)c4ccccc4)C(C)=C1C3(C)C)[C@]1(OC(C)=O)CO[C@@H]1C[C@@H]2O` the viability, T/C (compound 0.0316 µM) was 29.9% and 31.4% and 22.4%, the viability, T/C (compound 0.1 µM) was 25.7% and 26.3% and 18.2% and the viability, T/C (compound 0.316 µM) was 25.7% and 20.8% and 15.6%. For the same compound, the viability, T/C (compound 1 µM) was 22.3% and 19.5% and 11.7%, the viability, T/C (compound 3.16 µM) was 22.6% and 20.4% and 11% and the viability, T/C (compound 10 µM) was 26.4% and 22.7% and 16.2%. It also gave a pIC50 (curve of compound) greater than 7.50.
With `CCCS(=O)(=O)Nc1ccc(F)c(C(=O)c2c[nH]c3ncc(-c4ccc(Cl)cc4)cc23)c1F` the viability, T/C (compound 0.0316 µM) was 107% and 95.3% and 95.8%, the viability, T/C (compound 0.1 µM) was 101% and 100% and 102% and the viability, T/C (compound 0.316 µM) was 101% and 97.4% and 107%. The viability, T/C (compound 1 µM) was 97.1% and 102% and 107%, the viability, T/C (compound 3.16 µM) was 76% and 70.9% and 76.2% and the viability, T/C (compound 10 µM) was 54.1% and 46.8% and 37.6%. The pIC50 (curve of compound) was < 5.00 and 5.07 and 5.16.
For `CC(C)(O)C1CCC(Nc2ccc3ncc(-c4cccc(C(F)(F)F)c4)n3n2)CC1` (stereo not drawn), the viability, T/C (compound 0.0316 µM) was 98.3% and 102% and 86%, the viability, T/C (compound 0.1 µM) was 86.1% and 89.2% and 65.1% and the viability, T/C (compound 0.316 µM) was 76.1% and 82.5% and 72.4%. The viability, T/C (compound 1 µM) was 63.5% and 63.8% and 49.3%, the viability, T/C (compound 3.16 µM) was 47.9% and 49% and 37.8% and the viability, T/C (compound 10 µM) was 61.8% and 58% and 41.8%. For the same compound, the pIC50 (curve of compound) was < 5.00 and 5.93.
